{"source": "patent US7557144B1", "about": "“Modulation of protein expression using carbocyclic aryl alkenoic acid derivatives” (The Johns Hopkins University, priority 2000, dated 2009)", "key": {"[1]": {"details": "administered 4-PBA; cited from earlier work"}, "[2]": {"tested_on": "Hsc70", "assay": "Hsc70 immunoblot of IB3-1 whole cell lysates", "format": "cell-based, human", "details": "IB3-1 cells", "protocol": "3. Immunoblot analysis. Whole cell lysates were prepared by solubilization with 2% SDS at 95° C. Protein concentration in the lysates was determined using the Bio-Rad DC assay reagents with bovine plasma g-globulin as a standard (Bio-Rad Laboratories, Hercules, Calif.). Equal amounts of protein was resolved on 5, 7, 8, or 9% SDS-polyacrylamide gels. Proteins were transferred to nitrocellulose, and immunodetection was performed as previously described (25). Nonspecific binding was blocked by incubation of the nitrocellulose with 2% gelatin or 10% nonfat day milk. Primary antisera and secondary antibodies were applied in buffer containing 0.4% BSA overnight at 4° C. and for 1 h at room temperature, respectively. Detection of immunoreactivity was performed with the enhanced chemiluminescence reagent (ECL, Amer-sham) and fluorography. Recombinant bovine Hsc70 ([…]) was purchased from Stressgen Biotechnologies for use in constructing a standard curve of Hsc70 immunoreactivity. Immunoblots containing the bovine Hsc70 were probed with the Hsc70-specific polyclonal antiserum."}, "[3]": {"tested_on": "ΔF508-CFTR/Hsc70 complex", "assay": "Immunoprecipitation of Hsc70 and coimmunoprecipitation of CFTR from treated IB3-1 cells", "format": "cell-based, human", "details": "2 days"}, "[4]": {"design": "fraction of administered 4-PBA excreted as PAG in the urine: unit not given here", "details": "cited from earlier work"}, "[5]": {"tested_on": "CFTR", "assay": "Nasal potential difference in CF patients", "format": "in vivo, human", "from_the_text": "Standard methods for detecting and quantifying electrical potentials from nasal epithelia have been reported. See e.g., Zeitlin, P. L. (2000) in Mol. Therapy 1: 1; Noone, P. G. et al. (2000) in Mol. Therapy 1: 105-114; Caplen, J. J. et al. (1995) Nat. Med. 1: 39-46; Middleton, P. G. (1994) in Eur. Respir. 7: 2050-2056; the disclosures of which are hereby incorporated by reference.\nThis is consistent with the presence of a functional CFTR in the nasal epithelial cell surface.\nFIG. 16D the same individual as in […] 18 days on 4-phenylbutyrate."}, "[6]": {"details": "growth medium, 37° C., 5% CO2; previously determined (ref. 30); cited from earlier work"}, "[7]": {"tested_on": "Hsc70 mRNA", "assay": "RNase protection assay of Hsc70 mRNA in IB3-1 cells", "format": "cell-based, human", "from_the_text": "4. RNase protection. An Hsc70-specific probe for RNase protec-tion was constructed by isolation a 500-bp EcoR I fragment from American Type Culture Collection (ATCC) plasmid 77659 (ATCC, Manassas, Va.) and ligating this fragment into the EcoR I site of pSK(2) (Bluescript, Stratagene, La Jolla, Calif.). The resulting plasmid was sequenced in the Genetics Core Facility at the Johns Hopkins Hospital and found to be identical to sequences in exons 8 and 9 of the human Hsc70 sequence, with sequencing using the T3 primer and T7 primer leading to sense and antisense sequence, respectively. Hybridization probes were synthesized using a Maxiscript T7 kit (Ambion, Austin, Tex.) and [α^32 P]UTP (Amersham or DuPont NEN, Boston, Mass.) according to the Maxiscript protocol. Templates for internal control hybridizations, pTRI-18S and pTRI-cyclophilin A, were purchased from Ambion, and probes were similarly synthesized using the Maxiscript T7 kit. Probes were isolated by acid phenol-chloroform (Ambion) extraction, separated from unincorporated nucleotide by gel filtration (Sephadex G25 RNAspin column, Boehringer-Mannheim), and ethanol-acetate precipitated before resuspension in hybridization buffer. The concentration of radioactivity in the synthesized probes was determined by liquid scintillation.\nRNase protection experiments were performed using the Direct Protect RNase protection assay kit (Ambion) according to the manufacturer's protocol. IB3-1 cell lysates were pre-pared in Direct Protect lysis buffer according to the manufacturer's protocol after incubation under the appropriate conditions for 48 h. Probe (50-70 and 5-10 thousands of counts/min for Hsc70 and control, respectively) and cellular RNA were hybridized overnight at 37° C. and digested with RNase cocktail. Protected fragments were resolved by electrophoresis on 5% acrylamide-8 M urea gels and detected by fluorography. Hsc70 mRNA concentration is expressed relative to control (18S or cyclophilin A) hybridization by densitometry (see Densitometric analysis). Results for hybridization of Hsc70 mRNA relative to the two control species were similar and were therefore grouped for data analysis.\nFIGS. 3A-B are explained in more detailed as follows. Dose-dependent downregulation of Hsc70 mRNA expression by 4-PBA. A: IB3-1 cells were treated as for FIGS. 1 and 2. Hsc70 mRNA and 18S rRNA (as an internal reference) were measured by Direct Protect RNase protection as described under General Comments. […] P values (shown above respective error bars) were determined by 1-way ANOVA in comparison with control.\nFIG. 6 is explained in more detail as follows. […] P values (shown above respective error bars) were determined by 1-way ANOVA in comparison with control."}, "[8]": {"tested_on": "CF airway epithelial cells", "details": "Rubenstein et al. 1997; cited from earlier work"}, "[9]": {"details": "increasing concentrations of 4-PBA"}}}
{"smiles": "O=C(O)CCCc1ccccc1", "note": "[4-PBA, 4-phenylbutyric acid]", "values": [{"measurement": "toxicity", "setting": "[1]", "value": "little toxicity beyond a slightly bitter taste, mild stomach discomfort or mild peripheral edema if severely anemic"}, {"measurement": "decrease in Hsc70 immunoreactivity", "setting": "[2]; 4-PBA 2 days, densitometry", "value": "~50", "unit": "%"}, {"measurement": "total Hsc70 immunoreactivity in whole cell lysates", "setting": "[2]; increasing concentrations of 4-PBA, 2 days", "value": "declined in a dose-dependent fashion"}, {"measurement": "4-PBA concentration at which CFTR was undetectable in the immunoprecipitates", "setting": "[3]", "value": "> 1", "unit": "mM"}, {"measurement": "immunoprecipitable Hsc70", "setting": "[3]; [9]", "value": "decreased amounts"}, {"measurement": "immunoreactive CFTR recovered in complex with Hsc70", "setting": "[3]; [9]", "value": "less immunoreactive CFTR was recovered"}, {"measurement": "fraction of administered 4-PBA excreted as PAG in the urine", "setting": "[4]; in vivo", "value": "Ninety"}, {"measurement": "in vivo metabolic conversion", "setting": "[4]; then conjugated with glutamine to phenacetylglutamine, excreted in urine (ref. 6)", "value": "rapidly and completely converted by β-oxidation to phenylacetate"}, {"measurement": "nasal potential difference response to low chloride/isoproterenol", "setting": "[5]; CF patient (deltaF508 homozygous), 20 gm daily for 7 days", "value": "induce chloride transport"}, {"measurement": "nasal potential difference response to low chloride/isoproterenol", "setting": "[5]; same CF patient after 18 days on 4-phenylbutyrate", "value": "continues to sustain chloride transport"}, {"measurement": "time for which a constant concentration is maintained under culture conditions", "setting": "[6]", "value": "at least 2 days"}, {"measurement": "steady-state Hsc70 mRNA levels", "setting": "[7]; 4-PBA treatment, relative to 18S rRNA", "value": "concentration-dependent decrease"}, {"measurement": "maximum decrease of Hsc70 mRNA, of control expression", "setting": "[7]; continuous exposure to 5 mM 4-PBA", "value": "~50", "unit": "%"}, {"measurement": "cAMP-mediated chloride transport", "setting": "[8]", "value": "promote functional correction of cAMP-medicated chloride transport"}]}
